Results published in US11396517B1, “Exo-aza spiro inhibitors of menin-MLL interaction” (Janssen Pharmaceutica NV, priority 2017, dated 2022).
Like-named read-outs stand apart in the source and are kept apart here.

Columns and labels:
[1] = system: MV-4-11; assay: Proliferation assay B (spheroid assay) MV-4-11; assay type: cell-based, human; details: MV-4-11 cells, confluence at day 8, absolute IC50, read-out: (3b) Spheroid assay MV-4--11 (IC50(μM)) Assay B
Procedure: 3b) Proliferation Assay B
The anti-proliferative effect of menin/MLL protein/protein interaction inhibitor test compounds was assessed in human leukemia cell lines. The cell lines MV-4-11 and MOLM14 harbor MILL translocations and express the MILL fusion proteins MLL-AF4 and MLL-AF9, respectively, as well as the wildtype protein from the second allele. […] K562 was used as a control cell line containing two MLL wildtype alleles in order to exclude compounds that display general cytotoxic effects.
MV-4-11 and MOLM14 were cultured in RPMI-1640 (Sigma Aldrich) supplemented with 10% fetal bovine serum (HyClone), 2 mM L-glutamine (Sigma Aldrich) and 50 μg/ml gentamycin (Gibco). K562 were propagated in RPMI-1640 (Sigma Aldrich) supplemented with 20% fetal bovine serum (HyClone), 2 mM L-glutamine (Sigma Aldrich) and 50 μg/ml gentamycin (Gibco).
In order to assess the anti-proliferative effects, 1,500 MV-4-11, 300 MOLM14 cells or 750 K562 cells were seeded in 200 μl media per well in 96-well round bottom, ultra-low attachment plates (Costar, catalogue number 7007). Cell seeding numbers were chosen based on growth curves to ensure linear growth throughout the experiment. Test compounds were added at different concentrations and the DMSO content was normalized to 0.3%. Cells were incubated for 8 d at 37° C. and 5% CO2. Spheroid like growth was measured in real-time by live-cell imaging (IncuCyteZOOM, Essenbio, 4× objective) acquiring images at day 8. Confluence (%) as a measure of spheroid size was determined using an integrated analysis tool.
In order to determine the effect of the test compounds over time, the confluence in each well as a measure of spheroid size, was calculated. Confluence […] at the beginning of the experiment (t=0) was used as baseline for the calculation.
Absolute IC50 values were calculated as percent change in confluence as follows:
LC=Low Control: cells treated with 1 μM of the cytotoxic agent staurosporin
HC=High Control: Mean confluence (%) (DMSO treated cells) % Effect=100−(100*(Sample−LC)/(HC−LC))
To determine the IC50 a curve is fitted to the plot of % Effect vs Log 10 compound concentration using a sigmoidal fit with a variable slope and fixing the maximum to 100% and the minimum to 0%.

[2] = target: T1, menin (Homo sapiens, UniProt O00255, T541A); assay: Menin/MLL homogenous time-resolved fluorescence (HTRF) assay; assay type: binding; details: location 2; read-out: (2) location 2 Menin HTRF assay (IC50 (nM))
T1 construct: Menin (a.a. 1-610-6×his tag)
T1 sequence (O00255 with tags, fused parts or gaps T541A): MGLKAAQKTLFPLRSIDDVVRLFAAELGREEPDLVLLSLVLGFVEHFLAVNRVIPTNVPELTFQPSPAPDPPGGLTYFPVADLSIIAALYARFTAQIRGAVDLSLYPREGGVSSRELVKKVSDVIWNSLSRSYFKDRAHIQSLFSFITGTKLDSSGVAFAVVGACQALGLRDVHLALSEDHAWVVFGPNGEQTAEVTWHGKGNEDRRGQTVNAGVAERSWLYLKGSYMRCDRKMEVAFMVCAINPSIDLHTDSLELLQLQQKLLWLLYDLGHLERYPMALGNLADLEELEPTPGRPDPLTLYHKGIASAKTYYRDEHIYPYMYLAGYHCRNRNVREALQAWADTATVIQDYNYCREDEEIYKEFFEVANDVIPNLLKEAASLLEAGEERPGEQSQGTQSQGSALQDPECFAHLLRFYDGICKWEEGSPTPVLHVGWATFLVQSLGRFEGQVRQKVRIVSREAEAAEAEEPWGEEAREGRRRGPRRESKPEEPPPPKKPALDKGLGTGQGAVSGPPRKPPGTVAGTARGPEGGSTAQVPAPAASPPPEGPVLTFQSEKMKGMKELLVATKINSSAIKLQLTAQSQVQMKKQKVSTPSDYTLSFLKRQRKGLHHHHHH
How it was run: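 Terbium-labeled menin (aa 1-610, His-tagged; […]) preincubated 5 min with compound, then 75 nM FITC-MBM1 peptide for 15 min, ambient, Tris pH 7.5, 0.5% DMSO. HTRF 520/490 ratio; 11-point 3-fold titration; IC50 from % inhibition fit.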

[3] = system: MOLM14; assay: Proliferation assay B (spheroid assay) MOLM14; assay type: cell-based, human; details: MOLM14 cells, confluence at day 8, absolute IC50, read-out: (3b) Spheroid assay MOLM14 (IC50(μM)) Assay B
How it was run: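 Leukemia cells grown as spheroids in ultra-low-attachment round-bottom wells with compound at 0.3% DMSO for 8 d at 37 °C. Confluence imaged at day 8 as spheroid size, normalized between DMSO and 1 μM staurosporine controls; absolute IC50 from sigmoidal fit with bounds fixed at 0 and 100%.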

IC50 ([1]; Homo sapiens, MV4-11, 192 h)	IC50 [2]	IC50 ([3]; Homo sapiens, MOLM-14, 192 h)	IC50 [3]	IC50 [1]	Structure (SMILES)
> 3.75 µM	16.4 nM	> 3.75 µM			Cc1nc(N2CCC3(CC(Nc4ccc(CC#N)cc4)C3)C2)c2cc(CC(F)(F)F)sc2n1 (mixture of isomers) [Compound 404]
> 3.75 µM	34.1 nM	> 3.75 µM			CNC(=O)c1ccc(NC2CC3(CCN(c4ncnc5sc(CC(F)(F)F)cc45)C3)C2)cc1C#N (mixture of isomers) [Compound 422]
0.3 µM	2.5 nM	1.21 µM			CN(C)CCNC(=O)c1ccc(NC2CC3(CCN(c4ncnc5sc(CC(F)(F)F)cc45)C3)C2)cc1 (racemic) [Compound 73]
0.33 µM	2.9 nM	0.48 µM			CN1CCC(c2cc(NC3CC4(CCN(c5ncnc6sc(CC(F)(F)F)cc56)C4)C3)ccc2C#N)CC1 (racemic) [Compound 78]
2.43 µM	97.3 nM	> 3.75 µM			CC(C)(NC1CCC2(C1)CN(c1ncnc3sc(CC(F)(F)F)cc13)C2)c1ccccc1 (racemic) [Compound 276]
0.14 µM	1 nM	0.62 µM			CNC(=O)c1ccc(NC2CC3(CCN(c4ncnc5sc(CC(F)(F)F)cc45)C3)C2)c(F)c1 (single isomer, unassigned) [Compound 67]
0.23 µM	2.8 nM	0.5 µM			CNC(=O)c1ccc(NC2CC3(CCN(c4ncnc5sc(CC(F)(F)F)cc45)C3)C2)nc1 (single isomer, unassigned) [Compound 72]
0.05 µM	1.3 nM		0.46 µM		CN(C)CCNC(=O)c1ccc(NC2CC3(CCN(c4ncnc5sc(CC(F)(F)F)cc45)C3)C2)cc1 (single isomer, unassigned) [Compound 75]
0.17 µM	14.2 nM	0.59 µM			CN1CCC(c2cc(NC3CC4(CCN(c5ncnc6sc(CC(F)(F)F)cc56)C4)C3)ccc2C#N)CC1 (single isomer, unassigned) [Compound 79]
0.06 µM	2.3 nM	0.56 µM			O=C(NCCO)c1ccc(NC2CC3(CCN(c4ncnc5sc(CC(F)(F)F)cc45)C3)C2)cc1 (single isomer, unassigned) [Compound 84]
2.47 µM	34.7 nM	> 3.75 µM			FC(F)(F)Cc1cc2c(N3CCC4(CC(Nc5cccnc5)C4)C3)ncnc2s1 (single isomer, unassigned) [Compound 153]
0.43 µM	7.8 nM	2.83 µM			CNC(=O)c1ccc(NC2CC3(CCN(c4ncnc5sc(CC(F)(F)F)cc45)C3)C2)c(F)c1F (single isomer, unassigned) [Compound 226]
	30.2 nM		0.71 µM	0.97 µM	CN1CC=C(c2cc(NC3CC4(CCN(c5ncnc6sc(CC(F)(F)F)cc56)C4)C3)ccc2C(C)(C#N)C#N)CC1 (single isomer, unassigned) [Compound 247]
0.17 µM	2.8 nM		1.5 µM		CN(C)CCNC(=O)c1ccc(NC2CC3(CCN(c4ncnc5sc(CC(F)(F)F)cc45)C3)C2)nc1 (single isomer, unassigned) [Compound 254]
0.69 µM	15.1 nM	0.81 µM			Cc1nc(N2CCC3(CC(NCc4ccccc4)C3)C2)c2cc(CC(F)(F)F)sc2n1 (single isomer, unassigned) [Compound 262]
> 3.75 µM	98.2 nM	> 3.75 µM			COc1nc(N2CCC3(CC(Nc4ccccc4)C3)C2)c2cc(CC(F)(F)F)sc2n1 (single isomer, unassigned) [Compound 267]
2.48 µM	23.7 nM	> 3.75 µM			O=c1[nH]c2cc(N[C@@H]3CCC4(C3)CN(c3ncnc5sc(CC(F)(F)F)cc35)C4)ccc2o1 (single isomer, unassigned) [Compound 286]
3.37 µM	22.8 nM	> 3.75 µM			O=c1[nH]c2cc(N[C@H]3CCC4(C3)CN(c3ncnc5sc(CC(F)(F)F)cc35)C4)ccc2o1 (single isomer, unassigned) [Compound 287]
